Entries after “also recorded” stand apart in the source; their conditions may differ. Where a name gives a salt, the structure may show the parent alone. Read-outs that look alike come from different tables or passages of the source.
Experiments:
hOAT1 (SLC22A6) [1] = biological target: T1, hOAT1 (SLC22A6) (Homo sapiens, UniProt Q4U2R8); assay: Inhibition of hOAT1-mediated [3H]PAH uptake, cell accumulation assay in CHO-hOAT1 cells; assay type: cell-based; settings: for Ki: assuming competitive inhibition, 1 min uptake, read-out: inhibition constant Ki for hOAT1; for Ki / effect on hOAT1-mediated PAH uptake (in words): 1 μM [3H]PAH
T1 construct: expressed in transfected cells
T1 sequence (Q4U2R8 1-550 isoform Q4U2R8-2): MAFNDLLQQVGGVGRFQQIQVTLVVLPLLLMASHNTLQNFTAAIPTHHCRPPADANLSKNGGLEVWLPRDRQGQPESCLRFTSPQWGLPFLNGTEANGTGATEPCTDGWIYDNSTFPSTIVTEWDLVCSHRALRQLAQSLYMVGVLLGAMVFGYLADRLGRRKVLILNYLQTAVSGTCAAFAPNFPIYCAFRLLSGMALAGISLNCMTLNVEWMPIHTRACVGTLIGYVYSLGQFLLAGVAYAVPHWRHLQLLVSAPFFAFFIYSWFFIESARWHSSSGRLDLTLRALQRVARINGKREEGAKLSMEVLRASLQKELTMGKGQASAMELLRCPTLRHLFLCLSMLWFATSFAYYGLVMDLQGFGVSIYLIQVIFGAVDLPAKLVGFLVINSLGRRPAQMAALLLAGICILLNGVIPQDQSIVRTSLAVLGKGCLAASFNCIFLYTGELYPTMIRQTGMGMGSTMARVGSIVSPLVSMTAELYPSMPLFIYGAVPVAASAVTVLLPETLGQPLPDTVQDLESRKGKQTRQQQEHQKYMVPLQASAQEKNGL
Experimental: (§1) The cell accumulation assay protocol was performed as described in our recent publications with minor modifications. In brief, 2 × 10^5 cells/well were seeded in 24-well tissue culture plates and grown in the absence of antibiotics for two days. For transport experiments cells were preincubated in transport buffer without substrates or inhibitors for 10 min after which time the buffer was replaced with 400 μL of fresh transport buffer containing 1 μM [^3H]PAH (0.5 μCi/mL) or [^3H]ES (0.25 μCi/mL) with or without test compounds. After incubation for times specified in the figure legends, cellular uptake was quenched by quickly rinsing each well three times with fresh ice-cold transport buffer. Cells were lysed with 1 M NaOH and radioactivity was measured with a liquid scintillation counter and reported as picomoles of substrate per milligram total protein. All intracellular uptake data were corrected for background accumulation in corresponding empty vector transfected control cells. Kinetic calculations were performed using GraphPad Prism Software version 5.0 (GraphPad Software Inc., San Diego, CA). The half maximal inhibitory concentrations (IC50) and inhibitory constants (K i) were calculated using nonlinear regression with the appropriate models. Results were confirmed by repeating all experiments at least three times with triplicate wells for each data point.
Ten-minute uptake of [^3H]PAH (1 μM) was measured in CHO-hOAT1 cells in the absence and presence of test compounds (50 μM) or probenecid (1000 μM). Data represent hOAT1-mediated transport specifically, that is, data have been corrected for background PAH accumulation measured in empty vector transfected cells. Values are mean ± S.D. of triplicate values from a representative experiment. ** denotes P < 0.01, and *** denotes P < 0.001 as determined by one-way ANOVA followed by Dunnett's t-test.
One-minute uptake of [^3H]PAH (1 μM) in CHO-hOAT1 cells was measured in the presence of increasing concentrations (10^−7 to 5 × 10^−4 M) of test compounds. Data were corrected by subtracting background PAH accumulation measured in empty vector transfected cells. IC50 values were determined with nonlinear regression and the “log(inhibitor) versus response” model using GraphPad Prism software. Experiments were repeated three times with triplicate samples and graphs shown are from representative experiments with values plotted as mean ± S.D. (n = 3). The data were used to generate mean IC50 ± S.E.M. estimates.

hOAT3 (SLC22A8) [2] = biological target: T2, hOAT3 (SLC22A8) (Homo sapiens, UniProt Q8TCC7); assay: Inhibition of hOAT3-mediated [3H]ES uptake, cell accumulation assay in HEK-hOAT3 cells; assay type: cell-based; settings: 10 min uptake; for inhibition at 50 µM / effect on hOAT3-mediated ES uptake (in words): 50 μM test compound; for inhibition at 50 µM: 1 μM [3H]ES (50-fold excess)
T2 construct: expressed in transfected cells
T2 sequence (Q8TCC7 1-542): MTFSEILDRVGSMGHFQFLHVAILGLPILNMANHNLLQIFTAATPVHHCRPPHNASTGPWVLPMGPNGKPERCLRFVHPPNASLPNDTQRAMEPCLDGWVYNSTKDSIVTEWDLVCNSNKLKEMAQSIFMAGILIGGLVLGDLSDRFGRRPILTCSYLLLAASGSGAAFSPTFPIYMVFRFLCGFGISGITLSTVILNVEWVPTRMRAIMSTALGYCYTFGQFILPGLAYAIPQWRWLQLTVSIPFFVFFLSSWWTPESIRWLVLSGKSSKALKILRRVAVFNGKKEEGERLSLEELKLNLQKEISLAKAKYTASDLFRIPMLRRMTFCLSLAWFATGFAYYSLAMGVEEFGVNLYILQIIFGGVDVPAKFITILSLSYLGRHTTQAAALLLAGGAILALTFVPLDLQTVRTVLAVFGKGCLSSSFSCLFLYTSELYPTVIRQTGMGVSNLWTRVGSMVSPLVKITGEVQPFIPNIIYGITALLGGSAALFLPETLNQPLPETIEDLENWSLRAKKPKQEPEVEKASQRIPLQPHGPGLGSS
Experimental: (§2) Derivation and culture of stably transfected Chinese hamster ovary (CHO) cells expressing hOAT1 (CHO-hOAT1) and hOAT4 (CHO-hOAT4), stably transfected human embryonic kidney 293 (HEK) cells expressing hOAT3 (HEK-hOAT3), and their corresponding empty vector transfected background control cell lines, have been described previously.
as §1, with “point. […]” for “point.”
Figure 4 Inhibitory effects of the nine test compounds on hOAT3-mediated ES uptake. Ten-minute uptake of [^3H]ES (1 μM) was measured in HEK-hOAT3 cells in the absence and presence of test compounds (50 μM) or probenecid (1000 μM). Data represent hOAT3-mediated transport specifically, that is, data have been corrected for background ES accumulation measured in empty vector transfected cells. Values are mean ± S.D. of triplicate values from a representative experiment. * denotes P < 0.05, ** denotes P < 0.01, and *** denotes p < 0.001 as determined by one-way ANOVA followed by Dunnett's t-test.

hOAT1 (SLC22A6) [3] = biological target: T1, hOAT1 (SLC22A6); assay: Inhibition of hOAT1-mediated [3H]PAH uptake, cell accumulation assay in CHO-hOAT1 cells; assay type: cell-based; settings: dose-response 0.01–500 μM, 1 μM [3H]PAH, 1 min uptake, mean ± S.E.M., read-out: IC50 on hOAT1-mediated PAH transport
hOAT4 (SLC22A11) = biological target: T3, hOAT4 (SLC22A11) (Homo sapiens, UniProt Q9NSA0); assay: Inhibition of hOAT4-mediated [3H]ES uptake, cell accumulation assay in CHO-hOAT4 cells; assay type: cell-based
T3 construct: expressed in transfected cells
T3 sequence (Q9NSA0 1-550): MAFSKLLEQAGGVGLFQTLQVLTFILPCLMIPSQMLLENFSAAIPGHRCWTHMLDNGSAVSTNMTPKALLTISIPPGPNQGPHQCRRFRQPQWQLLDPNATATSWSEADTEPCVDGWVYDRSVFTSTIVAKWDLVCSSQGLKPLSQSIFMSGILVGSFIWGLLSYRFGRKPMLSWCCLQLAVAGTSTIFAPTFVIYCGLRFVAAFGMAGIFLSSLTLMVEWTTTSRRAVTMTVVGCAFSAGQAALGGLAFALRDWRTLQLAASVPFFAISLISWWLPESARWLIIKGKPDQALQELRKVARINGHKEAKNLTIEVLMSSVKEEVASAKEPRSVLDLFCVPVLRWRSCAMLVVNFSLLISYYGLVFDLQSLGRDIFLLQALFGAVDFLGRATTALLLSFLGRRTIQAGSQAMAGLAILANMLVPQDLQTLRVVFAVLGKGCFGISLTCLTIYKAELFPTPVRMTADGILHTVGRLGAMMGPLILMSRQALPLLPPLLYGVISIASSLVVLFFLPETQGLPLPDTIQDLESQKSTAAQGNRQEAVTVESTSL
Experimental: as §2
as §1, with “point. […]” for “point.”
Figure 5 Inhibitory effects of the nine test compounds on hOAT4-mediated ES uptake. Ten minute uptake of [^3H]ES (1 μM) was measured in CHO-hOAT4 cells in the absence and presence of test compounds (50 μM) or ES (1000 μM for self-inhibition). Data represent hOAT4-mediated transport specifically, that is, data have been corrected for background ES accumulation measured in empty vector transfected cells. Values are mean ± S.D. of triplicate values from a representative experiment. * denotes P < 0.05, and *** denotes P < 0.001 as determined by one-way ANOVA followed by Dunnett's t-test.

[4] = human subjects, cited from earlier work
hOAT3 (SLC22A8) [5] = biological target: T2, hOAT3 (SLC22A8); set-up: method as in PMID 22877817; settings: linear uptake for initial 1 min; cited from earlier work
[6] = 50 μM test compound, 1 μM [3H]PAH (50-fold excess), 10 min uptake
[7] = 50 μM test compound, 10 min uptake
[8] = 50 μM test compound, 1 μM [3H]ES, 10 min uptake, CHO-hOAT4 cells

## O=C(/C=C/c1ccc(O)c(O)c1)O[C@@H]1C[C@@](OC(=O)/C=C/c2ccc(O)c(O)c2)(C(=O)O)C[C@@H](O)[C@@H]1O [1,3-Dicaffeoylquinic acid, 1,3-dicaffeoylquinic acid]
hOAT1 (SLC22A6) [1]; [6]
  inhibition at 50 µM: 64%
hOAT1 (SLC22A6) [1]
  Ki: 1100 ± 200 nM
hOAT3 (SLC22A8) [2]
  inhibition at 50 µM: 41%
hOAT1 (SLC22A6) [3]
  IC50: 1200 ± 400 nM

## CCCCCCC=CCCCCCCCCCc1cccc(O)c1C(=O)O [ginkgolic acid (17 : 1)]
hOAT1 (SLC22A6) [1]; [6]
  inhibition at 50 µM: 42%
hOAT3 (SLC22A8) [2]
  inhibition at 50 µM: 41%

## Oc1cc(O)c2c(c1)O[C@H](c1ccc(O)c(O)c1)[C@@H](O)C2 [Catechin]
hOAT1 (SLC22A6) [1]; [7]
  effect on hOAT1-mediated PAH uptake (in words): no inhibition
hOAT3 (SLC22A8) [2]; 1 μM [3H]ES
  effect on hOAT3-mediated ES uptake (in words): failed to produce significant inhibition
hOAT4 (SLC22A11); [8]
  inhibition at 50 µM: 32%
hOAT4 (SLC22A11); inferred from level of inhibition at 50 μM, no kinetic study, read-out: IC50 on hOAT4 transport activity
  IC50: > 50000 nM

## CCCN(CCC)S(=O)(=O)c1ccc(C(=O)O)cc1 [probenecid, reference compound]
hOAT3 (SLC22A8) [2]; probenecid 1000 μM, 1 μM [3H]ES
  inhibition at 1000 µM: > 96%

## O=C(C=Cc1ccc(O)c(O)c1)OC1CC(OC(=O)C=Cc2ccc(O)c(O)c2)(C(=O)O)CC(O)C1O (stereo not shown) [1,5-Dicaffeoylquinic acid, 1,5-dicaffeoylquinic acid]
hOAT1 (SLC22A6) [1]; [6]
  inhibition at 50 µM: 22%
hOAT3 (SLC22A8) [2]
  inhibition at 50 µM: 30 to 35%
[4]; oral, 600 mg
  Cmax: 140 nM
hOAT4 (SLC22A11); [8]
  effect on hOAT4-mediated ES uptake (in words): significant stimulation of ES uptake

## CCCCCCC=CCCCCCCCc1cccc(O)c1C(=O)O [ginkgolic acid (15 : 1)]
hOAT3 (SLC22A8) [2]
  inhibition at 50 µM: 30 to 35%

## CC1(C)[C@@H](O)CC[C@]2(C)[C@H]3C(=O)C=C4[C@@H]5C[C@@](C)(C(=O)O)CC[C@]5(C)CC[C@@]4(C)[C@]3(C)CC[C@@H]12 [18β-glycyrrhetinic acid]
hOAT1 (SLC22A6) [1]; [6]
  inhibition of hOAT1-mediated PAH uptake: 56%
hOAT1 (SLC22A6) [1]
  Ki: 2500 ± 200 nM
hOAT3 (SLC22A8) [2]; 1 μM [3H]ES
  effect on hOAT3-mediated ES uptake (in words): failed to produce significant inhibition
hOAT1 (SLC22A6) [3]
  IC50: 2700 ± 200 nM
[4]; oral, 130–144 mg glycyrrhizin, assuming plasma 18α- : 18β-glycyrrhetinic acid about 1 : 3
  Cmax: 110 to 2900 nM
hOAT4 (SLC22A11); [8]
  effect on hOAT4-mediated ES uptake (in words): significant stimulation of ES uptake

## C[C@]12CC[C@@H]3c4ccc(OS(=O)(=O)O)cc4CC[C@H]3[C@@H]1CCC2=O [ES, estrone sulfate, reference compound]
hOAT4 (SLC22A11); unlabeled ES 1000 μM, 1 μM [3H]ES, 10 min uptake, CHO-hOAT4 cells
  inhibition of hOAT4-mediated ES uptake (self-inhibition): > 96%
hOAT3 (SLC22A8) [5]
  K m of ES uptake in hOAT3 expressing cells: 14.5 µM

## C[C@H]1[C@H](C)CC[C@]2(C(=O)O)CC[C@]3(C)C(=CC[C@@H]4[C@@]5(C)CC[C@H](O)C(C)(C)[C@@H]5CC[C@]43C)[C@H]12 [Ursolic acid]
hOAT1 (SLC22A6) [1]; [7]
  effect on hOAT1-mediated PAH uptake (in words): significant stimulation of uptake
hOAT3 (SLC22A8) [2]; 1 μM [3H]ES
  effect on hOAT3-mediated ES uptake (in words): failed to produce significant inhibition; also recorded: without effect
[4]; i.v., 186 mg
  Cmax: 7400 nM
hOAT4 (SLC22A11); [8]
  effect on hOAT4-mediated ES uptake (in words): without effect

## Oc1cc(O)c2c(c1)O[C@H](c1ccc(O)c(O)c1)[C@H](O)C2 [Epicatechin]
hOAT1 (SLC22A6) [1]; [7]
  effect on hOAT1-mediated PAH uptake (in words): no inhibition
hOAT3 (SLC22A8) [2]
  inhibition at 50 µM: 30 to 35%
[4]; oral, 37 mg
  Cmax: 200 nM

— PMC3618943, “Interaction of Natural Dietary and Herbal Anionic Compounds and Flavonoids with Human Organic Anion Transporters 1 (SLC22A6), 3 (SLC22A8), and 4 (SLC22A11)” (Evidence-based Complementary and Alternative Medicine : eCAM, 2013)
